Assay results: USRE46907E1, “Suppression of cancer growth and metastasis using nordihydroguaiaretic acid derivatives with metabolic modulators” (THE JOHNS HOPKINS UNIVERSITY, priority 2008, dated 2018)

Legend:
[1] = tested on: LNCaP human prostate cancer cells; assay type: cell-based; settings: 28 hrs, M4N 80 μM, Ro 5 μM, Ly 20 μM
Protocol: (§1) Cell Culture Either cell line 4T1 or 67NR was a gift from Dr. Miller (20). The cells were cultured in RPMI1640 medium supplemented with glucose (14 mM), pyruvate (1 mM), penicillin (100 units/ml), streptomycin (100 μg/ml), and fetal bovine serum (10%), buffered with 25 mM HEPES (pH 7.4). LNCaP human prostate cancer cell line was purchased from American Type Culture Collection (Manassas, Va.). The cell line was cultured in RPMI1640 medium supplemented with glucose (14 mM), pyruvate (1 mM), penicillin (100 units/ml), streptomycin (100 μg/ml), and fetal bovine serum (10%). Drugs were dissolved in dimethyl sulfoxide (DMSO) at a suitable concentration so that the final concentration of DMSO in the medium was less than 0.1%.
Apoptosis assay: Simple TLTNEL assay was conducted by using TUNEL apoptosis detection kit (Upstate, Temecula, Calif.) with some modification. For the evaluation of the effect of PKCδ wild type and dominant negative vectors on TUNEL-positive cell death, we first transfected 4T1 or 67NR cells with these vectors by effectene (Qiagen, Valencia, Calif.). Wild type PKCδ vector is constructed from wild type PKCδ gene and pEGFP (Promega, Madison, Wis.). Dominant negative PKCδ vector is constructed from PKCδ gene mutated at a 376th amino acid residue (threonine) and pEGFP (Promega, Madison, Wis.) This threonine residue is located in ATP-binding domain of protein kinase Cδ, and therefore essential for any kinase reaction of the protein so that this mutant protein supposedly function as dominant negative. As a control we used pEGFP-N3 vector was used. These vectors contain green fluorescent protein (GFP) gene to be used as a transfection marker. The vectors are kind gifts from Dr. Yuspa (National Institutes of Health, Bethesda, Md.) (88). Twenty four hours after transfection, the cells were treated with M4N, Rottlerin, or Ly294002. Then 24 hrs after this treatment with these reagents, the cells were fixed with 10% formaldehyde in phosphate buffered saline without calcium and magnesium (PBS (−)). The cells were then incubated with rabbit anti-GFP antibody (MBL International, Woburn, Mass.) followed by treatment with anti-rabbit IgG antibody conjugated with fluorescein (Promega, Madison, Wis.). TUNEL staining was conducted by using TUNEL apoptosis detection kit (Upstate, Temecula, Calif.) except for using Streptavidin-Alexa Fluor 568 (Molecular Probes, Eugene, Oreg.) instead of Avidine-Rhodamine contained in the kit. Cell death was evaluated by dividing the number of TUNEL-positive cells among the cells positive with anti-GFP staining by the number of these GFP-positive cells.

[2] = tested on: 4T1 cells; assay: MTT cell growth assay in 4T1 cells; assay type: cell-based, mouse
Protocol: as §1
MTT assay: Cells were incubated in PBS (−) supplemented with 5% fetal calf serum and 0.5 mg/ml MTT, 3-(4,5-Dimethylthiazol-2-yl)-2,5-diphenyltetrazolium bromide (Sigma, Saint Louis, Mo.) for 2 hrs. After the incubation, the cells were dissolved in dimethyl sulfoxide and the color of the solutions was measured by a spectrophotometer at wavelengths of 540 and 690 nm. The values correlated with viable cell numbers were obtained by subtracting the optical density at 690 nm from that, at 540 nm.

SMILES: COc1ccc(C[C@@H](C)[C@@H](C)Cc2ccc(OC)c(OC)c2)cc1OC [M4N, tetra-O-methyl nordihydroguaiaretic acid]
- TUNEL-positive cell death [1]: very small
- cell growth (MTT) at 20 μM ([2]; 4T1, 20 μM): significant effect of the drug to reduce cell growth
- concentration at which cell growth stopped ([2]; 4T1, MTT): 80 µM
- time after treatment at which effect on cell growth was evident ([2]; 4T1, MTT): 42 h
- cell growth (MTT) ([2]; 4T1, different concentrations of M4N): reduced the cell growth of 4T1 cells depending on the concentration of the drug
